23 molecules from ChEMBL document CHEMBL5550167, “Emerging trends in small molecule inhibitors targeting aldosterone synthase: A new paradigm in cardiovascular disease treatment” (Eur J Med Chem, 2024) can be followed below.

System in one data set: not listed separately
The data set is described as follows: Metabolic stability in human liver microsomes assessed as half life measured upto 60 mins by LC/MS-MS analysis. It is filed as ADME, Microsome. On the technique in general: Microsomes from liver hold many membrane-bound enzymes, among them those of drug oxidation.
A word on the half-life: it is the time needed for the level to fall by half in the phase considered. As to `Cc1nnc2n1-c1ccc(-c3cncc([C@](C)(O)C(F)(F)F)c3)cc1CC2`, the half-life was determined as 2 h.

The next data set deals with T1, Cytochrome P450 11B2, mitochondrial (Homo sapiens, UniProt P19099).
T1 sequence (P19099 whole entry): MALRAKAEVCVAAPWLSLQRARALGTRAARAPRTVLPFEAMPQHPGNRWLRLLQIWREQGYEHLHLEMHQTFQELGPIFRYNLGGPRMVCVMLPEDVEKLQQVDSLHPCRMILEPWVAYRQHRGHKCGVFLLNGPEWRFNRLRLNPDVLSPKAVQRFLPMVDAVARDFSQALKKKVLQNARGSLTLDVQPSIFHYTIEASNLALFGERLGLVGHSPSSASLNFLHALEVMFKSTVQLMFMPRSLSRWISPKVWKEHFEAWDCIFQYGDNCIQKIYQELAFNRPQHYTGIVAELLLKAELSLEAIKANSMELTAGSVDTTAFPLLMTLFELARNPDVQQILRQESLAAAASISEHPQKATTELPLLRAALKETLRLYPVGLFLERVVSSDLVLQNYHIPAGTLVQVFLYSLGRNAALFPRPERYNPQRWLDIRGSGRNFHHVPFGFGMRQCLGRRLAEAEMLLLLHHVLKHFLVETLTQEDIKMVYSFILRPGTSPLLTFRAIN
The data set is described as follows: Inhibition of CYP11B2 (unknown origin). It is filed as ADME.
By IC50 is commonly meant the point on the concentration scale where inhibition reaches its midpoint. The low end stands for greater potency, the high end for weaker potency. `CNC(=O)Cn1cc(NC(=O)CN2CCN(c3cncc(-c4ccc(Cl)cc4)c3)CC2)cn1`: the IC50 was determined as 3 nM.

For the molecule `CCCC1(c2ccc(C#N)cc2OC)C(=O)N(Cc2ccccc2)Cc2cncn21` (stereo unspecified), the IC50 is 4 nM.

On to `CC(C)CCC1(c2ccccc2Cl)C(=O)N(Cc2ccc(F)cc2)Cc2cncn21` (stereo unspecified), for which the IC50 was 4 nM.

On to `N#Cc1cccc2c1OCC(c1cncc(C(O)C3CCOCC3)c1)O2` (stereo unspecified), for which the IC50 was below 10 nM.

As to `CC1(C)C(=O)Nc2cccc(Cl)c2C1n1cncc1CO` (stereo unspecified), the concentration for half-maximal inhibition (IC50) was 7 nM.

`O=C(CC1CCc2c(-c3ccc(C(F)(F)F)cc3F)cncc21)N1CCCCC1` (stereo unspecified): inhibition was half-maximal at 2 nM (IC50).

In turn, `CN(C)C(=O)CC1CCCc2c(-c3ccc(C(F)(F)F)cc3F)cncc21` (stereo unspecified) yielded an IC50 of 32 nM.

With `CC1(c2ccccc2)CCc2cncc(-c3ccc(C(F)(F)F)cc3F)c21` (stereo unspecified), it took 33 nM to reach half-maximal inhibition (IC50).

Molecule `N#Cc1cccc2c1OCC(c1cncc(CN3CCCCS3(=O)=O)c1)O2` (stereo unspecified) registered an IC50 below 10 nM.

The molecule `N#Cc1ccc(-c2cncc3c2CCCC3)cc1` registered an IC50 of 40 nM.

As for `CC(C)NC(=O)CN1CCN(c2cncc(-c3ccc4c(c3)CCO4)n2)C1`, inhibition was half-maximal at 2.2 nM (IC50).

With `CS(=O)(=O)COc1cncc(C2COc3c(C#N)cccc3O2)c1` (stereo unspecified), the IC50 was below 10 nM.

As for `Cc1nnc2n1-c1ccc(-c3cncc([C@](C)(O)C(F)(F)F)c3)cc1CC2`, half-maximal inhibition (IC50) required 64 nM.

In turn, `N#Cc1cccc2c1OCC(c1cncc(CN3CCOC3=O)c1)O2` (stereo unspecified) came in with an IC50 below 10 nM.

`CC1(C)CN(Cc2ccccc2)c2ccccc2C1N1C=NCC1CO` (stereo unspecified) came in with an IC50 of 6 nM.

A further data set deals with T2, CYP11B1 (Homo sapiens, UniProt P15538).
T2 sequence (P15538 whole entry): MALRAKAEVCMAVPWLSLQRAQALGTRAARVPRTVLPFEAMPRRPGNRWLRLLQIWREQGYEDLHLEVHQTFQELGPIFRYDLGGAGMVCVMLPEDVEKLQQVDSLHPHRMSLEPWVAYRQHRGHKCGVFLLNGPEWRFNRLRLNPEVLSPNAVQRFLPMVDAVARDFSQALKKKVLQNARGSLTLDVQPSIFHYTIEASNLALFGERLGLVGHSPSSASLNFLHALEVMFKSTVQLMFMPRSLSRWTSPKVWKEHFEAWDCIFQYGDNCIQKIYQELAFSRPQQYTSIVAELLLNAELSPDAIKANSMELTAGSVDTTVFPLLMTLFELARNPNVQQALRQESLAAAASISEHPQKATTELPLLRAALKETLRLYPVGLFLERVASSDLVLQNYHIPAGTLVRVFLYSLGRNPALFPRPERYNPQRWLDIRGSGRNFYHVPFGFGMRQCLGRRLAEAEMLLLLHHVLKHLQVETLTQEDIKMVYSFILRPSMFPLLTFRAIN
Description: (§1) Inhibition of CYP11B1 (unknown origin). It is filed as ADME.
Consider `Cc1c(F)cncc1C1COc2c(cccc2C(N)=O)O1` (stereo unspecified), for which the IC50 was found to be 2600 nM.

The molecule `COc1cc2c(cc1-c1cccnc1)CCC(=O)N2C` registered a 50% inhibitory concentration (IC50) of 1100 nM.

The target in a further data set is T3, Cytochrome P450 11B1, mitochondrial (Homo sapiens, UniProt P15538).
T3 sequence (P15538 whole entry): T2 sequence (P15538 whole entry)
The description is as §1. It is filed as ADME.
In turn, `Cc1c(-c2cccnc2)[nH]c2ccccc12` registered an IC50 of 81 nM.

For the molecule `Cn1c(-c2cccnc2)c(C#N)c2ccc(Cl)cc21`, the IC50 stood at 107 nM.

On to `O=C(CC1CCc2c(-c3ccc(C(F)(F)F)cc3F)cncc21)N1CCCCC1` (stereo unspecified), for which the half-inhibitory concentration (IC50) was 10 nM.

Molecule `CC1(c2ccccc2)CCc2cncc(-c3ccc(C(F)(F)F)cc3F)c21` (stereo unspecified) had an IC50 of 738 nM.

The target in another data set is T1, Cytochrome P450 11B2, mitochondrial. The data set is described as follows: Inhibition of human CYP11B2 stably expressed in G-402 cells. It is filed as ADME, cell-based.
The molecule `CCn1cc(C(=O)N2CC3(C2)CN(c2cncc(N4C(=O)c5ccc(Cl)cc5C4(C)C)c2)C3)cn1` showed an IC50 of 0.23 nM.

`Cn1cc(C(=O)N2CC(Oc3cncc(N4C(=O)c5ccc(Cl)cc5C4(C)C)c3)C2)cn1`: the IC50 came to 0.5 nM.

Regarding `Cn1nccc1-c1cncc(N2CCc3cc(Cl)ccc3C2=O)c1Cl`, half-maximal inhibition (IC50) required 6.2 nM.

The target is the same in a further data set. The data set is described as follows: Inhibition of human CYP11B2 expressed in human NCI-H295 cells incubated for 48 hrs by radioimmuno assay. The data set is classed as ADME, cell-based.
For `COc1ccc2c(c1)CC(C)C(c1cncc3ccccc13)=C2` (stereo unspecified), the IC50 came to 0.5 nM.
